We go through 26 molecules from US12209087B2, “AKT1 modulators” (Alterome Therapeutics, Inc., priority 2022, dated 2025).

The target of the assay is T1, full length AKT E17K (Homo sapiens, UniProt P31749, E17K).
T1 construct: host or cells: HEK-293 (ATCC CRL-1573)
T1 sequence (P31749 whole entry E17K): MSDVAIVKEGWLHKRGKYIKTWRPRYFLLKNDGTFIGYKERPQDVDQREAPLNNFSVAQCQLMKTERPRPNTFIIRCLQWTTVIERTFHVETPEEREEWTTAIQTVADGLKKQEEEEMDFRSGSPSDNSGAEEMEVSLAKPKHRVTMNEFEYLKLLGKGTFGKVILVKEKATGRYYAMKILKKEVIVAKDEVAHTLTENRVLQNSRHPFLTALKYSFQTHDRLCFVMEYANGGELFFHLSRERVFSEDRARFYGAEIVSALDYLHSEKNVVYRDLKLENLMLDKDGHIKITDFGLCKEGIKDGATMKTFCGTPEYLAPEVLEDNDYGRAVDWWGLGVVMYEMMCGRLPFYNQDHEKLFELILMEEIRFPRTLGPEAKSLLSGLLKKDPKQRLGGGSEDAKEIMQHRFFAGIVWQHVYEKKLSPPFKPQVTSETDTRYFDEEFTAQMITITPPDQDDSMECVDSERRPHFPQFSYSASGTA
Description: NanoBRET Target Engagement (TE) Assay. The note with it: competitive tracer displacement in living cells, read-out: AKT1 E17K IC50. The assay is classed as cell-based. The text has this: The NanoBRET™ Target Engagement (TE) Intracellular Kinase Assays are based on the NanoBRET™ System (Promega Corporation), an energy transfer technique designed to measure molecular proximity in living cells. The NanoBRET™ TE Assays measure the apparent affinity of test compounds by competitive displacement of the NanoBRET™ tracer compound, which is a cell permeable molecule engineered to be reversibly bound to a NanoLuc® luciferase-kinase fusion expressed in cells. For compound screening, when a test compound binds to the selected kinase, the BRET signal is attenuated. […] All cells were evaluated for viability prior to transfection and optimization of the transfection was done prior to experimentation. […] Following transfection, cells were washed and resuspended in Opti-MEM. NanoBRET assays were performed in white, 384-well plates (Corning) at a density of […]. All example compounds were prepared as concentrated stock solutions in DMSO (Sigma-Aldrich). Compounds are dissolved in DMSO to make 10 mM stock solution. […] A Labcyte ECHO 550 compound dispenser was used to facilitate compound transfer directly to cells. Cells were equilibrated for 2 hr with energy transfer probes and example compound prior to BRET measurements. […] For target engagement analysis, the energy transfer probes were added to the cells at concentrations optimized for the target in question (AKT E17K). Following compound incubation, NanoBRET NanoGlo Substrate (Promega Cat #N157D) and Extracellular Nanoluc Inhibitor (Promega Cat #N235C) was added according to the manufacturer's recommended protocol, and luminescence was measured on Envision Reader (Perkin Elmer) Multimode Luminometer equipped with 450 nm BPfilter (donor) and 600 nm LPfilter (acceptor), using 0.5 s integration time. Milli-BRET units (mBU) are calculated by multiplying the raw BRET values by 1000. Apparent tracer affinity values (EC50) were determined using the sigmoidal dose-response (variable slope).
Competitive displacement data were then plotted and data were fit to determine the EC50 value for each example compound.
`N#Cc1nccc(NCc2ccc(-n3c(-c4cccnc4N)nc4cccnc43)cc2)n1` [Example 47, 4-((4-(2-(2-Aminopyridin-3-yl)-3H-imidazo[4,5-b]pyridin-3-yl)benzyl)amino)pyrimidine-2-carbonitrile]: the IC50 was 600 to 10000 nM.
To `N#Cc1nccc(N2CCN(Cc3ccc(-n4c(-c5cccnc5N)nc5ccc(-c6ccccc6)nc54)cc3)CC2)n1` [Example 49, 4-(4-(4-(2-(2-Aminopyridin-3-yl)-5-phenyl-3H-imidazo[4,5-b]pyridin-3-yl)benzyl)piperazin-1-yl)pyrimidine-2-carbonitrile] belongs less than 15 nM; to `N#Cc1cnnc(NCc2ccc(-n3c(-c4cccnc4N)nc4cccnc43)cc2)c1` [Example 50, 6-((4-(2-(2-Aminopyridin-3-yl)-3H-imidazo[4,5-b]pyridin-3-yl)benzyl)amino)pyridazine-4-carbonitrile], 600 to 10000 nM.
Regarding `N#Cc1cnnc(NC2CCN(Cc3ccc(-n4c(-c5cccnc5N)nc5cccnc54)cc3)CC2)c1` [Example 51, 6-((1-(4-(2-(2-Aminopyridin-3-yl)-3H-imidazo[4,5-b]pyridin-3-yl)benzyl)piperidin-4-yl)amino)pyridazine-4-carbonitrile], the half-maximal inhibitory concentration (IC50) was 600 to 10000 nM.
To `N#Cc1cnnc(N2CCN(Cc3ccc(-n4c(-c5cccnc5N)nc5ccc(-c6ccccc6)nc54)cc3)CC2)c1` [Example 53, 6-(4-(4-(2-(2-Aminopyridin-3-yl)-5-phenyl-3H-imidazo[4,5-b]pyridin-3-yl)benzyl)piperazin-1-yl)pyridazine-4-carbonitrile] belongs 60 to 600 nM; to `N#Cc1cnnc(NC2CCN(Cc3ccc(-n4c(-c5cccnc5N)nc5ccc(-c6ccccc6)nc54)cc3)CC2)c1` [Example 54, 6-((1-(4-(2-(2-Aminopyridin-3-yl)-5-phenyl-3H-imidazo[4,5-b]pyridin-3-yl)benzyl)piperidin-4-yl)amino)pyridazine-4-carbonitrile], 60 to 600 nM; to `N#Cc1cc(C(=O)NC2CCN(Cc3ccc(-n4c(-c5cccnc5N)nc5ccc(-c6ccccc6)nc54)cc3)CC2)ccn1` [Example 55, N-(1-(4-(2-(2-Aminopyridin-3-yl)-5-phenyl-3H-imidazo[4,5-b]pyridin-3-yl)benzyl)piperidin-4-yl)-2-cyanoisonicotinamide], 15 to 60 nM.
With `N#Cc1cccc(C(=O)NC2CCN(Cc3ccc(-n4c(-c5cccnc5N)nc5ccc(-c6ccccc6)nc54)cc3)CC2)n1` [Example 56, N-(1-(4-(2-(2-Aminopyridin-3-yl)-5-phenyl-3H-imidazo[4,5-b]pyridin-3-yl)benzyl)piperidin-4-yl)-6-cyanopicolinamide], the 50% inhibitory concentration (IC50) is less than 15 nM.
To `N#Cc1cncc(C(=O)NC2CCN(Cc3ccc(-n4c(-c5cccnc5N)nc5ccc(-c6ccccc6)nc54)cc3)CC2)c1` [Example 57, N-(1-(4-(2-(2-Aminopyridin-3-yl)-5-phenyl-3H-imidazo[4,5-h]pyridin-3-yl)benzyl)piperidin-4-yl)-5-cyanonicotinamide] belongs 60 to 600 nM; to `N#Cc1ncccc1C(=O)NC1CCN(Cc2ccc(-n3c(-c4cccnc4N)nc4ccc(-c5ccccc5)nc43)cc2)CC1` [Example 58, N-(1-(4-(2-(2-Aminopyridin-3-yl)-5-phenyl-3H-imidazo[4,5-h]pyridin-3-yl)benzyl)piperidin-4-yl)-2-cyanonicotinamide], less than 15 nM; to `N#Cc1cnccc1C(=O)NC1CCN(Cc2ccc(-n3c(-c4cccnc4N)nc4ccc(-c5ccccc5)nc43)cc2)CC1` [Example 59, N-(1-(4-(2-(2-Aminopyridin-3-yl)-5-phenyl-3H-imidazo[4,5-b]pyridin-3-yl)benzyl)piperidin-4-yl)-3-cyanoisonicotinamide], 15 to 60 nM.
As to `N#Cc1ccncc1C(=O)NC1CCN(Cc2ccc(-n3c(-c4cccnc4N)nc4ccc(-c5ccccc5)nc43)cc2)CC1` [Example 60, N-(1-(4-(2-(2-Aminopyridin-3-yl)-5-phenyl-3H-imidazo[4,5-b]pyridin-3-yl)benzyl)piperidin-4-yl)-4-cyanonicotinamide], the IC50 is less than 15 nM.
Then `N#Cc1cccnc1C(=O)NC1CCN(Cc2ccc(-n3c(-c4cccnc4N)nc4ccc(-c5ccccc5)nc43)cc2)CC1` [Example 61, N-(1-(4-(2-(2-Aminopyridin-3-yl)-5-phenyl-3H-imidazo[4,5-b]pyridin-3-yl)benzyl)piperidin-4-yl)-3-cyanopicolinamide], with less than 15 nM; and `N#Cc1cc(NC2CCN(Cc3ccc(-n4c(-c5cccnc5N)nc5cccnc54)cc3)CC2)ccn1` [Example 62, 4-((1-(4-(2-(2-Aminopyridin-3-yl)-3H-imidazo[4,5-b]pyridin-3-yl)benzyl)piperidin-4-yl)amino)picolinonitrile], with 600 to 10000 nM; and `N#Cc1cccc(NC2CCN(Cc3ccc(-n4c(-c5cccnc5N)nc5cccnc54)cc3)CC2)n1` [Example 63, 6-((1-(4-(2-(2-Aminopyridin-3-yl)-3H-imidazo[4,5-b]pyridin-3-yl)benzyl)piperidin-4-yl)amino)picolinonitrile], with 600 to 10000 nM.
To `N#Cc1cc(NC2CCN(Cc3ccc(-n4c(-c5cccnc5N)nc5cccnc54)cc3)CC2)ncn1` [Example 64, 6-((1-(4-(2-(2-aminopyridin-3-yl)-3H-imidazo[4,5-b]pyridin-3-yl)benzyl)piperidin-4-yl)amino)pyrimidine-4-carbonitrile] belongs 600 to 10000 nM; to `N#Cc1cncc(N2CCN(Cc3ccc(-n4c(-c5cccnc5N)nc5ccc(-c6ccccc6)nc54)cc3)CC2)c1` [Example 65, 5-(4-(4-(2-(2-Aminopyridin-3-yl)-5-phenyl-3H-imidazo[4,5-b]pyridin-3-yl)benzyl)piperazin-1-yl)nicotinonitrile], 60 to 600 nM.
To `N#Cc1ccnc(N2CCN(Cc3ccc(-n4c(-c5cccnc5N)nc5ccc(-c6ccccc6)nc54)cc3)CC2)c1` [Example 66, 2-(4-(4-(2-(2-Aminopyridin-3-yl)-5-phenyl-3H-imidazo[4,5-b]pyridin-3-yl)benzyl)piperazin-1-yl)isonicotinonitrile] belongs 600 to 10000 nM; to `N#Cc1cncc(N2CCN(Cc3ccc(-n4c(-c5cccnc5N)nc5ccc(-c6ccccc6)nc54)cc3)CC2)n1` [Example 67, 6-(4-(4-(2-(2-Aminopyridin-3-yl)-5-phenyl-3H-imidazo[4,5-b]pyridin-3-yl)benzyl)piperazin-1-yl)pyrazine-2-carbonitrile], 60 to 600 nM.
For the molecule `N#Cc1ccnc(N2CCN(Cc3ccc(-n4c(-c5cccnc5N)nc5ccc(-c6ccccc6)nc54)cc3)CC2)n1` [Example 68, 2-(4-(4-(2-(2-Aminopyridin-3-yl)-5-phenyl-3H-imidazo[4,5-b]pyridin-3-yl)benzyl)piperazin-1-yl)pyrimidine-4-carbonitrile], the IC50 is less than 15 nM.
To `N#Cc1cccc(C(=O)N2CCN(Cc3ccc(-n4c(-c5cccnc5N)nc5cccnc54)cc3)CC2)n1` [Example 69, 6-(4-(4-(2-(2-Aminopyridin-3-yl)-3H-imidazo[4,5-b]pyridin-3-yl)benzyl)piperazine-1-carbonyl)picolinonitrile] belongs 600 to 10000 nM; to `N#Cc1nnccc1C(=O)N1CCN(Cc2ccc(-n3c(-c4cccnc4N)nc4ccc(-c5ccccc5)nc43)cc2)CC1` [Example 70, 4-(4-(4-(2-(2-Aminopyridin-3-yl)-5-phenyl-3H-imidazo[4,5-b]pyridin-3-yl)benzyl)piperazine-1-carbonyl)pyridazine-3-carbonitrile], 60 to 600 nM; to `N#Cc1nnccc1C(=O)NC1CCN(Cc2ccc(-n3c(-c4cccnc4N)nc4ccc(-c5ccccc5)nc43)cc2)CC1` [Example 71, N-(1-(4-(2-(2-Aminopyridin-3-yl)-5-phenyl-3H-imidazo[4,5-b]pyridin-3-yl)benzyl)piperidin-4-yl)-3-cyanopyridazine-4-carboxamide], 15 to 60 nM.
Turning to `N#Cc1cncnc1C(=O)N1CCN(Cc2ccc(-n3c(-c4cccnc4N)nc4ccc(-c5ccccc5)nc43)cc2)CC1` [Example 72, 4-(4-(4-(2-(2-Aminopyridin-3-yl)-5-phenyl-3H-imidazo[4,5-b]pyridin-3-yl)benzyl)piperazine-1-carbonyl)pyrimidine-5-carbonitrile], the IC50 lay in the range of 600 to 10000 nM.
Then `N#Cc1cncnc1C(=O)NC1CCN(Cc2ccc(-n3c(-c4cccnc4N)nc4ccc(-c5ccccc5)nc43)cc2)CC1` [Example 73, N-(1-(4-(2-(2-Aminopyridin-3-yl)-5-phenyl-3H-imidazo[4,5-b]pyridin-3-yl)benzyl)piperidin-4-yl)-5-cyanopyrimidine-4-carboxamide], with 15 to 60 nM; and `N#Cc1cncc(NC2CCN(Cc3ccc(-n4c(-c5cccnc5N)nc5cccnc54)cc3)CC2)c1` [Example 74, 5-((1-(4-(2-(2-Aminopyridin-3-yl)-3H-imidazo[4,5-b]pyridin-3-yl)benzyl)piperidin-4-yl)amino)nicotinonitrile], with 600 to 10000 nM.
